Tests used:
[1] = system: Human immunodeficiency virus; experiment: Compound was tested for cellulr inhibition of HIV was determined; assay type: functional; conditions: Human immunodeficiency virus 1
[2] = Concentration maxima after oral dosing in dogs; assay type: ADME, organism-based, Canis lupus familiaris; parameters: route oral; conditions: dog, in vivo
[3] = molecular target: Human immunodeficiency virus type 1 protease (Human immunodeficiency virus 1, UniProt Q72874); experiment: Inhibition of Human Immunodeficiency virus-1 protease
[4] = system: Human immunodeficiency virus; experiment: Compound was tested for cellulr inhibition of HIV was determined; Range is 6-12; assay type: functional; conditions: Human immunodeficiency virus 1
[5] = system: Human immunodeficiency virus; experiment: Compound was tested for cellulr inhibition of HIV was determined; Range is 12-25; assay type: functional; conditions: Human immunodeficiency virus 1
[6] = system: Human immunodeficiency virus; experiment: Compound was tested for cellulr inhibition of HIV was determined; Range is 25-50; assay type: functional; conditions: Human immunodeficiency virus 1

SMILES | IC95 [1] | Cmax [2] | IC50 [3] | IC95 [4] | IC95 [5] | IC95 [6]
CC(C)(C)NC(=O)[C@@H]1CN(Cc2cccnc2)CCN1C[C@@H](O)C[C@@H](Cc1ccncc1)C(=O)N[C@H]1c2ccccc2C[C@H]1O | > 0.2 µM | 414 nM | 1.7 nM |  |  | 
CC(C)(C)NC(=O)[C@@H]1CN(Cc2cc3sccc3s2)CCN1C[C@@H](O)C[C@@H](Cc1cccnc1)C(=O)N[C@H]1c2ccccc2C[C@H]1O |  | 3290 nM | 0.09 nM | 0.012 µM |  | 
CC(C)(C)NC(=O)[C@@H]1CN(Cc2cccnc2)CCN1C[C@@H](O)C[C@@H](Cc1cccnc1)C(=O)N[C@H]1c2ccccc2C[C@H]1O | > 0.2 µM |  | 1.7 nM |  |  | 
CC(C)(C)NC(=O)[C@@H]1CN(Cc2c(F)cccc2F)CCN1C[C@@H](O)C[C@@H](Cc1cccnc1)C(=O)N[C@H]1c2ccccc2C[C@H]1O | 0.0123 µM | 1010 nM | 0.14 nM |  |  | 
CC(C)(C)NC(=O)[C@@H]1CN(Cc2cc(Br)cs2)CCN1C[C@@H](O)C[C@@H](Cc1ccncc1)C(=O)N[C@H]1c2ccccc2C[C@H]1O |  | 2200 nM | 0.11 nM |  | 0.025 µM | 
CC(C)(C)NC(=O)[C@@H]1CN(Cc2c(F)cccc2F)CCN1C[C@@H](O)C[C@@H](Cc1ccncc1)C(=O)N[C@H]1c2ccccc2C[C@H]1O |  | 8060 nM | 0.48 nM |  |  | 0.05 µM
CC(C)(C)NC(=O)[C@@H]1CN(Cc2cc(Br)cs2)CCN1C[C@@H](O)C[C@@H](Cc1cccnc1)C(=O)N[C@H]1c2ccccc2C[C@H]1O | 0.025 µM | 633 nM | 0.03 nM |  |  | 
CC(C)(C)NC(=O)[C@@H]1CN(S(=O)(=O)c2cccc3cccnc23)CCN1C[C@@H](O)C[C@@H](Cc1ccncc1)C(=O)N[C@H]1c2ccccc2C[C@H]1O | 0.2 µM |  | 0.015 nM |  |  | 
CC(C)(C)NC(=O)[C@@H]1CN(Cc2cc3ccsc3s2)CCN1C[C@@H](O)C[C@@H](Cc1ccncc1)C(=O)N[C@H]1c2ccccc2C[C@H]1O |  | 1730 nM | 0.06 nM | 0.012 µM |  | 
CC(C)(C)NC(=O)[C@@H]1CN(S(=O)(=O)c2cccc3cccnc23)CCN1C[C@@H](O)C[C@@H](Cc1cccnc1)C(=O)N[C@H]1c2ccccc2C[C@H]1O | > 0.2 µM |  | 0.03 nM |  |  | 
CC(C)(C)NC(=O)[C@@H]1CN(Cc2cc3ccsc3s2)CCN1C[C@@H](O)C[C@@H](Cc1cccnc1)C(=O)N[C@H]1c2ccccc2C[C@H]1O |  | 7290 nM | 0.12 nM | 0.012 µM |  | 
CC(C)(C)NC(=O)[C@@H]1CN(Cc2cc3sccc3s2)CCN1C[C@@H](O)C[C@@H](Cc1ccncc1)C(=O)N[C@H]1c2ccccc2C[C@H]1O |  | 1590 nM | 0.05 nM | 0.012 µM |  | 
CC(C)(C)NC(=O)[C@@H]1CN(Cc2cccnc2)CCN1C[C@@H](O)C[C@@H](Cc1ccccc1)C(=O)N[C@H]1c2ccccc2C[C@H]1O [INDINAVIR] | 0.05 µM |  |  |  |  | 
